# Columns and labels:
# A. fumigatus UGM [1] = biological target: T1, A. fumigatus UGM (Aspergillus fumigatus, UniProt Q4W1X2); assay: biochemical; format: binding; conditions: 20 µM compound, 2% DMSO, 30 nM ADP-TAMRA, normalized to negative control; read-out: Normalized anisotropy (%)
# T1 construct: 8x His-tag (TEV-cleavable) (cleaved yes); made in house; host or cells: E. coli BL21 Turbo (DE3)
# Experimental: High-throughput screening of the Spectrum Collection library using the FP assay with the ADP-TAMRA[22] probe was performed at the Virginia Tech Center for Drug Discovery Screening Laboratory. 384 well plates (Greiner 784900) were used and the reaction volume was 15 µL using 25 mM HEPES buffer (pH 7.0). For the screening, 30 nM of ADP-TAMRA with 6.7 µM UGM (based on the Bradford assay) and 20 µM of library compound were used, with a final DMSO concentration of 2%. Fluorescence polarization measurements were performed with excitation at 544 nm and emission at 584 nm, using a wavelength cutoff of 570 nm. Anisotropy measurements were performed after 30 and 120 minutes of incubation at 25 °C. Anisotropy values were normalized to the values obtained in the negative control sample: UGM, ADP-TAMRA, and DMSO (high anisotropy values). The positive control consisted of ADP-TAMRA and DMSO (low anisotropy values). The Z prime (Z′) value was determined using equation (1) where, σN,P and μN,P represent the standard deviation and the mean value the of the negative and positive controls respectively.1 Z′=1−3(σN+σP)/|μN−μP|
# A. fumigatus [2] = assay: Thermotolerance study, growth in PDA at 50 °C; format: cell-based, Aspergillus fumigatus; conditions: 1000 µM compound, 48 h at 50 °C, vs reference
# [3] = test system: UDP-glucuronosyltransferases; conditions: cited from earlier work
# A. fumigatus UGM [4] = biological target: T1, A. fumigatus UGM; assay: biochemical; format: biochemical
# Experimental: (§1) The reaction was quenched with the addition of 70 µL acetonitrile. […] Samples were run at a flow rate of 0.5 mL/min for 5 min. IC50 was also determined by following NADPH oxidation at 340 nm. […] Data was analyzed using KaleidaGraph software. […] Global fitting was performed with Graphpad Prims 6 software (La Jolla, CA).
# A. fumigatus UGM [5] = biological target: T1, A. fumigatus UGM; assay: biochemical; format: biochemical; conditions: for Type of Inhibition: NADPH oxidation at different concentrations of inhibitor and NADPH
# Experimental: as §1
# A. fumigatus [6] = assay: Congo red susceptibility assay; format: cell-based, Aspergillus fumigatus; conditions: 100 µM compound with congo red (0.5 and 1 mg/mL), 48 h, 37 °C
# S. aureus strains = conditions: cited from earlier work
# A. fumigatus [7] = assay: Toxicity study, growth in PDA medium at 37 °C; format: cell-based, Aspergillus fumigatus
# A. fumigatus UGM [8] = biological target: T1, A. fumigatus UGM; assay: biochemical; format: binding
# Experimental: Binding of inhibitors to UGM was measured with an Auto-ITC 200 ITC instrument. UGM was dialyzed in 50 mM potassium phosphate buffer, pH 7.0, for 2 h at 4 °C. In all cases, ligands were dissolved in dialysis buffer and protein and ligand were filtered with a […] membrane prior to loading. […] Inhibitor concentration in the syringe was 2 mM (2% DMSO), except for chrysin where the concentration was 600 µM (4% DMSO). […] Thermodynamic parameters were determined from ITC results using Microcal Origin version 7.0 (OriginLab) with the “ITC custom” add-on installed.
# UGM = biological target: T2, UGM (Aspergillus fumigatus, UniProt Q4W1X2); assay: ThermoFAD melting temperature assay; format: binding; conditions: 20, 100 and 1000 µM compound, 2% DMSO, 1 mg/mL UGM
# T2 construct: 8x His-tag (TEV-cleavable) (cleaved yes); made in house; host or cells: E. coli BL21 Turbo (DE3)
# T2 sequence (Q4W1X2 whole entry): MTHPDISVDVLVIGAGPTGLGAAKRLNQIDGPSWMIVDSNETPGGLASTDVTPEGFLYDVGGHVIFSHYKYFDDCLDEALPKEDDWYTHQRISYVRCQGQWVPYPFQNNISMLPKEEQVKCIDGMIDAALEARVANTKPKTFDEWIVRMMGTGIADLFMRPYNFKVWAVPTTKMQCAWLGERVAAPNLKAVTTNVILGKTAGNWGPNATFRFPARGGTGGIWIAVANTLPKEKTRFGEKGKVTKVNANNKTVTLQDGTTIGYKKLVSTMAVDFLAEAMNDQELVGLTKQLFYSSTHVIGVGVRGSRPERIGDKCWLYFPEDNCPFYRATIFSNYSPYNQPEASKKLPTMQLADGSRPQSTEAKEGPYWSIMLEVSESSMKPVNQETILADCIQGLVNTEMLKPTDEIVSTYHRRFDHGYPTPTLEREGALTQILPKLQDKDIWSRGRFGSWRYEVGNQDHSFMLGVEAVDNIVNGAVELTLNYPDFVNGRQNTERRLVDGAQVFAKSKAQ
# Experimental: The melting temperature[25] of UGM was determined by measuring the FAD fluorescence as a function of temperature (20–90 °C, 1 °C step) following the reported ThermoFAD procedure. The reaction mix consisted of 20 µL of 1 mg/mL UGM, 2% DMSO in 50 mM potassium phosphate buffer, pH 7.0. As a reference and positive control, the Tm was calculated in the presence DMSO and UDP (10 mM). Different concentrations of inhibitors were added in the range of 0–1 mM at a final DMSO concentration of 2% in the above-mentioned buffer. All experiments were done in triplicate.
# T1 sequence (Q4W1X2 whole entry): as above
smiles,measurement,setting,value
COc1ccc([C@@H]2CC(=O)c3c(O)cc(O)cc3O2)cc1O [(2S)-hesperetin],remaining activity at 20 µM,A. fumigatus UGM [1],17%
same,Delay in colony development,A. fumigatus [2],~ 50%
same,Effect on UDP-glucuronosyltransferases,[3],inhibitory effect
same,"Inhibition of product formation, concentration dependence","A. fumigatus UGM [4]; UPLC at 20 and 200 µM compound, 2% DMSO",concentration dependent potency
same,Concentration effect,"A. fumigatus UGM [4]; inhibition at 200 µM vs 20 µM compound, UPLC",+
same,inhibition at 200 µM,A. fumigatus UGM [4]; read-out: Inhibition > 50 %,> 50%
same,Type of Inhibition,A. fumigatus UGM [5],Competitive (NADPH)
same,Type of Inhibition,A. fumigatus UGM [5]; listed as (2S)-Hesperetin,competitive against NADPH
same,Inhibition of NADPH oxidation,A. fumigatus UGM [5]; absence of UDP-Galf,inhibited NADPH oxidation
same,Growth decrease with congo red,A. fumigatus [6],~ 50%
same,Biofilm formation inhibition,S. aureus strains,> 70%
same,A. fumigatus toxicity,A. fumigatus [7]; 1000 µM,no A. fumigatus toxicity
same,A. fumigatus toxicity under optimal growth conditions,"A. fumigatus [7]; 600 and 1000 µM, 24-48 h",not toxic
same,Kd,A. fumigatus UGM [8],31 ± 6 µM
same,T•∆S,"A. fumigatus UGM [8]; ITC, 25 °C",2.1 ± 0.2 kcal/mol
same,∆G,"A. fumigatus UGM [8]; ITC, 25 °C",-6.1 ± 0.4 kcal/mol
same,∆H,"A. fumigatus UGM [8]; ITC, 25 °C",-4.1 ± 0.4 kcal/mol
same,Increase of Tm of UGM,UGM,~ 2.7 °C
